pEC50: −log10 of the molar value.
Biological target: T1, Isoform 2 of Nuclear receptor ROR-alpha (Alpha-2) (Homo sapiens, UniProt P35398)
T1 sequence (P35398 whole entry): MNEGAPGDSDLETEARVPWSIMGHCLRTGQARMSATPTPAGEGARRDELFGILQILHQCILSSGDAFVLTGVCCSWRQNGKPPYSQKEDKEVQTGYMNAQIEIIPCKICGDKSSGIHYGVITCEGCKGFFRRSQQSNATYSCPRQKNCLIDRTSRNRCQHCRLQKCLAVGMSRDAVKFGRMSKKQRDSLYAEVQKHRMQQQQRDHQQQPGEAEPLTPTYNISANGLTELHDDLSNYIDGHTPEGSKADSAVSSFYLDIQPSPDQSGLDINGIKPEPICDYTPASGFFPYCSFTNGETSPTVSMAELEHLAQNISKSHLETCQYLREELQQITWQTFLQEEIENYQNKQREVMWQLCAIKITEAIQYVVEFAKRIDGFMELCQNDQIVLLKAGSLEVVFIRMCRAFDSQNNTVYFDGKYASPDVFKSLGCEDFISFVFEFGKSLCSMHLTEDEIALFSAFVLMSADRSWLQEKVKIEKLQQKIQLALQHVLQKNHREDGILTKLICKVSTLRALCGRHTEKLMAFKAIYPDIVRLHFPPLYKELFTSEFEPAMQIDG
Test: RORA Gal4 reporter activation in CHO-K1 cells, dose response, counter-screen for SF-1 activator project, cell-based, Gal4-RORA LBD, luciferase luminescence (AID 675)

SMILES | pEC50 | pEC50 (inactive by the depositor's call)
COc1ccc(C(=O)CC=Nc2cccc(C)n2)cc1OC | 6.13 | –
CC(=O)c1c(C)[nH]c(C(=O)Nc2ccc3c(c2)OCCO3)c1C | 6.40 | –
COc1ccc2c(c1OC)C(=O)N1c3ccccc3SC21 (stereo not drawn) [1,2-dimethoxy-4bH-isoindolo[1,2-b][1,3]benzothiazol-11-one] | 6.12 | –
O=C(CSc1ccccn1)c1ccc2c(c1)OCO2 [1-(1,3-benzodioxol-5-yl)-2-(2-pyridinylthio)ethanone] | 5.91 | –
O=C(COc1ncnc2ccccc12)c1ccc2c(c1)OCCO2 [1-(2,3-dihydro-1,4-benzodioxin-6-yl)-2-(4-quinazolinyloxy)ethanone] | 6.21 | –
CCCn1c(C)cc(C(=O)COc2ncnc3sccc23)c1C [1-(2,5-dimethyl-1-propyl-3-pyrrolyl)-2-(4-thieno[2,3-d]pyrimidinyloxy)ethanone] | 5.70 | –
N#CCc1ccc(NC(=O)Nc2cccc(Cl)c2)cc1 [1-(3-chlorophenyl)-3-[4-(cyanomethyl)phenyl]urea] | 5.78 | –
CN(C)c1ccc(NC(=O)Nc2cccc(Cl)c2)cc1 [1-(3-chlorophenyl)-3-[4-(dimethylamino)phenyl]urea] | < 6.39 | –
Clc1ccc(-n2ncc3c(NCc4ccccn4)ncnc32)cc1 [1-(4-chlorophenyl)-N-(2-pyridinylmethyl)-4-pyrazolo[3,4-d]pyrimidinamine] | 5.64 | –
COc1ccc2nc(Nc3nc(C)c(C(C)=O)s3)sc2c1 [1-[2-[(6-methoxy-1,3-benzothiazol-2-yl)amino]-4-methyl-1,3-thiazol-5-yl]ethanone] | < 5.91 | –
O=C(Cc1ccccc1)n1nc(-c2ccccc2)nc1NCc1ccco1 [1-[5-(2-furanylmethylamino)-3-phenyl-1,2,4-triazol-1-yl]-2-phenylethanone] | < 4.96 | –
Fc1cnc(N2CCOCC2)nc1N1CCc2ccccc21 [1-[5-fluoro-2-(4-morpholinyl)-4-pyrimidinyl]indoline] | – | 4.99
CCOC(=O)C1CCN(S(=O)(=O)c2ccc(-c3nc4ccccc4s3)s2)CC1 [1-[[5-(1,3-benzothiazol-2-yl)-2-thienyl]sulfonyl]isonipecotic acid ethyl ester] | 5.77 | –
COc1ccc2c(c1)CCc1c(C(=O)N3CCCCCC3)noc1-2 [1-azepanyl-(7-methoxy-4,5-dihydrobenzo[g][1,2]benzoxazol-3-yl)methanone] | 5.80 | –
COc1ccc(CNC(=O)NC2CCCCC2)cc1 [1-cyclohexyl-3-[(4-methoxyphenyl)methyl]urea] | < 4.00 | –
COc1ccc(-c2cc(C(=O)N3CCCCC3)no2)cc1OC [1-{[5-(3,4-dimethoxyphenyl)isoxazol-3-yl]carbonyl}piperidine] | 5.41 | –
Cc1cc(C(=O)OCC(=O)N2CCc3ccccc32)c(C)o1 [2,5-dimethyl-3-furancarboxylic acid [2-(2,3-dihydroindol-1-yl)-2-oxoethyl] ester] | 6.05 | –
CC(C)(C)n1ncc2c(=O)n(CC(=O)NCc3ccccc3Cl)cnc21 [2-(1-tert-butyl-4-keto-pyrazolo[3,4-d]pyrimidin-5-yl)-N-(2-chlorobenzyl)acetamide] | < 6.87 | –
COc1cc(N2CCCC2)c(OC)cc1C=c1sc2nc3ccccc3n2c1=O [2-(2,5-dimethoxy-4-pyrrolidino-benzylidene)thiazolo[3,2-a]benzimidazol-1-one] | 4.96 | –
CCn1c(SCC(=O)c2cccs2)nnc1-c1ccco1 [2-(4-Ethyl-5-furan-2-yl-4H-[1,2,4]triazol-3-ylsulfanyl)-1-thiophen-2-yl-ethanone] | 5.24 | –
CN(C)c1oc(-c2ccc(OCc3ccccc3)cc2)nc1C#N [2-(4-benzoxyphenyl)-5-(dimethylamino)oxazole-4-carbonitrile] | 5.65 | –
CCOc1ccc(N2C(=O)c3ccccc3C2O)cc1 (stereo not drawn) [2-(4-ethoxyphenyl)-3-hydroxy-3H-isoindol-1-one] | 6.05 | –
O=C(CSc1nc2ccccc2o1)Nc1nc2ccccc2s1 [2-(Benzooxazol-2-ylsulfanyl)-N-benzothiazol-2-yl-acetamide] | < 4.96 | –

Reference: BindingDB's records for doi:10.7270/Q24T6GSH (The Scripps Research Institute Molecular Screening Center, 2007)
